Where two headings read alike, the source gives them in different places.

The results in this text go back to patent US4889860A (Nova Pharmaceutical Corporation, priority 1987, dated 1989).

One assay has as its target T1, mu-type opioid receptor (Rattus norvegicus, UniProt P33535).
T1 construct: using rat forebrain membranes; from tissue; host or cells: rat forebrain membranes
Description: inhibition of specific [^3 H] DAGO binding to rat forebrain membranes. On the procedure:
(§1) The interaction of some of the novel compounds with mu and delta-type opioid receptors present in brain membranes was examined in vitro. […] DAGO (mu-type receptor) or [^3 H] DADLE (delta-type receptor) was determined using rat forebrain membranes. Computer assisted analysis (EBDA) was used to determine apparent Ki values for the various compounds.
(§2) Values represent the MEAN±S.E.M. of the Ki(nM) for each compound to inhibit specific binding of the indicated ligand to rat brain membranes. The values are from two-five separate experiments and were calculated according to the method of Cheng and Prusoff [Biochem. Pharmacol. 1973, 22, 3099-3108] together with the EBDA Program. Numbers in parentheses are the mean Hill coefficients for each compound to inhibit ligand binding.
(§3) Values represent the MEAN±S.E.M. of the Ki(nM) for each compound to inhibit specific binding of the indicated ligand to rat brain membranes. The values are from two.div.seven separate experiments and were calculated according to the method of Cheng and Prusoff together with the EBDA program. Numbers in parentheses are the mean Hill coefficients for each compound to inhibit ligand binding. N.D.=not determined
(§4) The interaction of some of the novel compounds with mu, delta and kappa - type opioid receptors present in brain membranes was examined in vitro. […] DAGO (mu-type receptor), or [^3 H] DADLE (Delta-type receptor) using rat forebrain membranes and [^3 H] EKC (kappa-type receptor) using guiniea pig cerebellum membrane was determined. Computer assisted analysis (EBDA) was used to determine apparent Ki values for the various compounds.
(§5) The values represent the MEAN±S.E.M. of the Ki(nM) for each compound to inhibit specific binding of the indicated ligand. Each value represents the mean of three individual experiments performed on separate occasions.

For assay [1], the target named is delta-type opioid receptor (Rattus norvegicus, UniProt P33533). Description: inhibition of specific [^3 H] DADLE binding to rat forebrain membranes. As to the method: as §1, §2, §3, §4, §5
Assay [2] concerns the target T2, kappa-type opioid receptor (Cavia porcellus, UniProt P41144).
T2 construct: using guiniea pig cerebellum membrane; from tissue; host or cells: guinea pig cerebellum membranes
Description: inhibition of specific [^3 H] EKC binding to guinea pig cerebellum membrane. On the procedure:
as §4, §5

Assay [3] has as its system oxymorphonazine (OMZ)-induced analgesia. Nature of the assay: antagonism of oxymorphonazine (OMZ)-induced analgesia (tail flick) in rats. In kind it is in vivo, rat. Conditions: S.C.; for ED50 / ED100: Rattus norvegicus, sc, Table 8; for ED50: read-out: ED 50, oxymorphonazine antagonism; for ED100: read-out: ED 100, oxymorphonazine antagonism; for Percent Antagonism at 1 Hr / Percent Antagonism at 1.5 Hr / Percent Antagonism at 2 Hr / Percent Antagonism at 3 Hr / Percent Antagonism at 4 Hr / Percent Antagonism at 6 Hr / Percent Antagonism at 8 Hr: dose tested (mg/kg): Naltrexone 0.5, Nalmefene 1.0, XI 10.0, XII 2.5, XIII 0.5, XIV 5.0. On the procedure: The compound of Example XII was evaluated for its potency and duration in the antagonism of oxymorphonazine (OMZ)-induced analgesia. […] Data represent the mean SEM of 4-5 animals per group.
(Cowan A. Trendsin Pharmacology Science, 7:69-72, 1986) With this test the intracerebroventricular administration of bombesin produces a characteristic scratching response.

The mark [4] stands for this setting: (Ki) nM, μ receptor (Rat Forebrain), Table 6, [^3 H] DAGO, mean of three experiments.
[5] abbreviates: read-out: (Ki) nM, δ receptor (Rat Forebrain), Table 6, [^3 H] DADLE, mean of three experiments.
Where [6] appears, read: Ki, inhibition of specific [^3 H] DAGO binding, Tables 1 and 2, rat brain membranes, MEAN±S.E.M.
Setting [7] is: read-out: Ki, inhibition of specific [^3 H] DADLE binding, Tables 1 and 2, rat brain membranes, MEAN±S.E.M.

Chain of delta-type opioid receptor (P33533 whole entry): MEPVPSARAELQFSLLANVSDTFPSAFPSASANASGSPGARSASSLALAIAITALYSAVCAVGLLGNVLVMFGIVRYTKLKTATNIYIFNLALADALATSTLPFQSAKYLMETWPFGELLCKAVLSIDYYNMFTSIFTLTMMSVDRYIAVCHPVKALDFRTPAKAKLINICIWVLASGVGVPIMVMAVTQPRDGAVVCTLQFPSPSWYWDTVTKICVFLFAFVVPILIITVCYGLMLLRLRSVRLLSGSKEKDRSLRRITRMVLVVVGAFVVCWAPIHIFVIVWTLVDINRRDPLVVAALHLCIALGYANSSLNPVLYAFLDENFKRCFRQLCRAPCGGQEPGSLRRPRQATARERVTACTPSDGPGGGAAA
T2 sequence (P41144 whole entry): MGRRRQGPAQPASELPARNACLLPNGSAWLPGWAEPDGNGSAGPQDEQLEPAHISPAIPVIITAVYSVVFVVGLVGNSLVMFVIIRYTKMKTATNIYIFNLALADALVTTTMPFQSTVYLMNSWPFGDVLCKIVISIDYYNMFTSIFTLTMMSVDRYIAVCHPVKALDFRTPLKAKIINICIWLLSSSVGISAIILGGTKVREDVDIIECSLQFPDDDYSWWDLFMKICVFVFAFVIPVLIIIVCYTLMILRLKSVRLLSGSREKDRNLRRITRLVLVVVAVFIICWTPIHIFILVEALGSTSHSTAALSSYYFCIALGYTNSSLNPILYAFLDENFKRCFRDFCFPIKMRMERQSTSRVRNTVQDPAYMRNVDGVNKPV
T1 sequence (P33535 whole entry): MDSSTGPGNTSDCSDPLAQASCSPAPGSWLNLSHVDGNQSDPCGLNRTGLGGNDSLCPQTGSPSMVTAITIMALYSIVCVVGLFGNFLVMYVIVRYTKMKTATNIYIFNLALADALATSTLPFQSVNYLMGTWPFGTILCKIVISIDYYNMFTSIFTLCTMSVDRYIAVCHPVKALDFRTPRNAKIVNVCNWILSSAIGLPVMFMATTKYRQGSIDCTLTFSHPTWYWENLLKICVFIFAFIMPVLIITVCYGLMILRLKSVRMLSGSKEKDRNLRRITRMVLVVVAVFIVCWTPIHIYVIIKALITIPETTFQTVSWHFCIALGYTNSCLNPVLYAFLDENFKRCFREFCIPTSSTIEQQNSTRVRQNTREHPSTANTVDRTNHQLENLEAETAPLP

Regarding `ON=C1CC[C@@]2(O)[C@H]3Cc4ccc(O)c5c4[C@@]2(CCN3CC2CC2)[C@H]1O5` [Example IX, 6-Oximino-17-cyclopropylmethyl-4,5 α-epoxy-3, 14-dihydroxymorphinan], the Ki worked out at 0.24 nM on mu-type opioid receptor (setting [4]); 0.24 ± 0.03 nM at mu-type opioid receptor (Tables 1 and 2, rat brain membranes, MEAN±S.E.M., read-out: Ki, inhibition of specific [^3 H] DAGO binding); 1.64 nM in assay [1] (setting [5]); 2.05 nM in assay [2]. Also, on mu-type opioid receptor (Tables 1 and 2, numbers in parentheses), the “mean Hill coefficient, [^3 H] DAGO binding” value is 0.81. The “fold more potent to inhibit specific [^3 H]DAGO binding” value at mu-type opioid receptor (than compound of Example X or XI, or naltrexone) was found to be 3 fold.

`Oc1ccc2c3c1O[C@H]1C(=NOc4ccccc4C(F)(F)F)CC[C@@]4(O)[C@@H](C2)N(CC2CC2)CC[C@]314` [XIX, 6-[2-trifluoromethylphenyl]oximino-17-cyclopropylmethyl-4,5 α-epoxy-3,14-dihydroxymorphinan]: the Ki at mu-type opioid receptor (setting [4]) stood at 3.77 nM; in assay [1] (setting [5]) it was 1.29 nM.

`Cc1cccc(ON=C2CC[C@@]3(O)[C@H]4Cc5ccc(O)c6c5[C@@]3(CCN4CC3CC3)[C@H]2O6)c1C` [Example XV, 6-[2,3-dimethylphenyl]oximino-17-cyclopropylmethyl-4,5 α-epoxy-3,14-dihydroxymorphinan]: the Ki came to 1.19 nM on mu-type opioid receptor (setting [4]) and 1.23 nM in assay [1] (setting [5]).

For `Oc1ccc2c3c1O[C@H]1C(=NOC4CCCCC4)CC[C@@]4(O)[C@@H](C2)N(CC2CC2)CC[C@]314` [Example XXV, 6-cyclohexyloximino-17-cyclopropylmethyl-4,5 α-epoxy-3,14-dihydroxymorphinan], the inhibitory constant (Ki) came to 1.1 nM on mu-type opioid receptor (setting [4]), 0.08 nM in assay [1] (setting [5]) and 9.76 nM in assay [2].

Turning to `CON=C1CC[C@@]2(O)[C@H]3Cc4ccc(O)c5c4[C@@]2(CCN3C)[C@H]1O5` [Example II, 6-Methyloximino-17-methyl-4,5 α-epoxy-3, 14-dihydroxymorphinan], the Ki on mu-type opioid receptor (setting [6]) is 0.97 ± 0.1 nM; in assay [1] (setting [7]), 3.44 ± 0.83 nM.

The molecule `Oc1ccc2c3c1O[C@H]1C(=NOC4CCCc5ccccc54)CC[C@@]4(O)[C@@H](C2)N(CC2CC2)CC[C@]314` (stereo partly drawn) [Example XIV, 6-[1,2,3,4-tetrahydronaphth-1-yl]oximino-17-cyclopropylmethyl-4,5 α-epoxy-3,14-dihydroxymorphinan] showed an inhibition constant Ki on mu-type opioid receptor (setting [4]) of 2.76 nM. In assay [1] (setting [5]), the Ki came to 0.6 nM. Further, in assay [2], the inhibitory constant (Ki) was 4.66 nM. Also, in assay [3], the ED50 amounted to 0.02 mg/kg, the ED100 amounted to 6.73 mg/kg, the “Percent Antagonism at 1 Hr” value amounted to 80% and the “Percent Antagonism at 1.5 Hr” value is 84%. Moreover, in assay [3], the “Percent Antagonism at 2 Hr” value is recorded as 82%, the “Percent Antagonism at 3 Hr” value was 84%, the “Percent Antagonism at 4 Hr” value is 83% and the “Percent Antagonism at 6 Hr” value was determined as 41%. In assay [3], the “Percent Antagonism at 8 Hr” value amounted to 20%.

With `Oc1ccc2c3c1O[C@H]1C(=NOc4ccc(C(F)(F)F)cc4)CC[C@@]4(O)[C@@H](C2)N(CC2CC2)CC[C@]314` [Example XVII, 6-[4-trifluoromethylphenyl]oximino-17-cyclopropylmethyl-4,5 α-epoxy-3,14-dihydroxymorphinan], the inhibitory constant (Ki) at mu-type opioid receptor (setting [4]) amounted to 26.4 nM; in assay [1] (setting [5]), 34.4 nM.

Take `NCc1ccc(ON=C2CC[C@@]3(O)[C@H]4Cc5ccc(O)c6c5[C@@]3(CCN4CC3CC3)[C@H]2O6)cc1` [Example XXIV, 6-[4-aminomethylphenyl]oximino-17-cyclopropylmethyl-4,5α-epoxy-3,14-dihydroxymorphinan]: the results for the inhibitory constant (Ki) (at mu-type opioid receptor (setting [4]); in assay [1] (setting [5]); in assay [2]) were 0.34 nM, 1 nM and 0.71 nM, respectively.

`Oc1ccc2c3c1O[C@H]1C(=NOC45CC6CC(CC(C6)C4)C5)CC[C@@]4(O)[C@@H](C2)N(CC2CC2)CC[C@]314` [Example XXVII, 6-[1-adamantyl]oximino-17-cyclopropylmethyl-4,5 α-epoxy-3,14-dihydroxymorphinan]: the values for the inhibition constant Ki (at mu-type opioid receptor (setting [4]); in assay [1] (setting [5]); in assay [2]) were 5.39 nM, 2.63 nM and 6.41 nM, respectively.

`Oc1ccc2c3c1O[C@H]1C(=NOC4CCCC4)CC[C@@]4(O)[C@@H](C2)N(CC2CC2)CC[C@]314` [Example XXVI, 6-cyclopentyloximino-17-cyclopropylmethyl-4,5 α-epoxy-3,14-dihydroxymorphinan]: the Ki on mu-type opioid receptor (setting [4]) was 0.52 nM; in assay [1] (setting [5]), 0.04 nM; in assay [2], 7.94 nM.

Turning to `CON=C1CC[C@@]2(O)[C@H]3Cc4ccc(O)c5c4[C@@]2(CCN3CC2CC2)[C@H]1O5` [Example X, 6-Methyloximino-17-cyclopropylmethyl-4,5 α-epoxy-3, 14-dihydroxymorphinan], the inhibition constant (Ki) at mu-type opioid receptor (setting [6]) is 0.66 ± 0.06 nM; in assay [1] (setting [7]) it was 1.8 ± 0.22 nM.

Take `O=C1c2ccccc2C(=O)N1Cc1ccc(ON=C2CC[C@@]3(O)[C@H]4Cc5ccc(O)c6c5[C@@]3(CCN4CC3CC3)[C@H]2O6)cc1` [Example XXI, 6-[4-phthalimidomethylphenyl]oximino-17-cyclopropylmethyl-4,5 α-epoxy-3,14-dihydroxymorphinan]: the inhibition constant Ki on mu-type opioid receptor (setting [4]) is 7.35 nM; in assay [1] (setting [5]) it was 2.57 nM; in assay [2] it was 18 nM.

`Cc1ccc(ON=C2CC[C@@]3(O)[C@H]4Cc5ccc(O)c6c5[C@@]3(CCN4CC3CC3)[C@H]2O6)cc1C` [Example XIII, 6-[3,4-dimethylphenyl]oximino-17-cyclopropylmethyl-4,5α-epoxy-3,14-dihydroxymorphinan]: the inhibition constant (Ki) on mu-type opioid receptor (setting [4]) came out at 1.64 nM. For the same molecule, in assay [1] (setting [5]), the inhibition constant (Ki) is 2.69 nM. In addition, in assay [3], the ED50 stood at 0.09 mg/kg, the ED100 amounted to 0.74 mg/kg, the “Percent Antagonism at 1 Hr” value is 77% and the “Percent Antagonism at 1.5 Hr” value was 72%. Also, in assay [3], the “Percent Antagonism at 2 Hr” value is 67%, the “Percent Antagonism at 3 Hr” value is reported as 79%, the “Percent Antagonism at 4 Hr” value is given as 72% and the “Percent Antagonism at 6 Hr” value is listed as 71%. For the same molecule, in assay [3], the “Percent Antagonism at 8 Hr” value worked out at 97%.

At mu-type opioid receptor (setting [4]), `Oc1ccc2c3c1O[C@H]1C(=NOCc4ccccc4)CC[C@@]4(O)[C@@H](C2)N(CC2CC2)CC[C@]314` [Example XI, 6-Benzyloximino-17-cyclopropylmethyl-4, 5 α-epoxy-3, 14-dihydroxymorphinan] came in with an inhibition constant Ki of 0.55 nM. On mu-type opioid receptor (setting [6]), this molecule had a Ki of 0.55 ± 0.12 nM. Also, in assay [1] (setting [5]), the Ki came out at 0.87 nM. Moreover, the Ki in assay [1] (setting [7]) turned out to be 0.7 ± 0.22 nM. Also, in assay [3], the ED50 came out at 1.2 mg/kg, the ED100 is 13 mg/kg, the “Percent Antagonism at 1 Hr” value is reported as 72% and the “Percent Antagonism at 1.5 Hr” value is reported as 86%. Besides, in assay [3], the “Percent Antagonism at 2 Hr” value turned out to be 91%, the “Percent Antagonism at 3 Hr” value came to 93%, the “Percent Antagonism at 4 Hr” value was determined as 103% and the “Percent Antagonism at 6 Hr” value is 122%. The “Percent Antagonism at 8 Hr” value in assay [3] amounted to 64%.

Regarding `N#Cc1ccc(ON=C2CC[C@@]3(O)[C@H]4Cc5ccc(O)c6c5[C@@]3(CCN4CC3CC3)[C@H]2O6)cc1` [XVIII, 6-[4-cyanophenyl]oximino-17-cyclopropylmethyl-4,5α-epoxy-3,14-dihydroxymorphinan], the Ki came out at 2.07 nM on mu-type opioid receptor (setting [4]), 1.64 nM in assay [1] (setting [5]) and 12.9 nM in assay [2].

Take `N=C(N)c1ccc(ON=C2CC[C@@]3(O)[C@H]4Cc5ccc(O)c6c5[C@@]3(CCN4CC3CC3)[C@H]2O6)cc1` [Example XX, 6-[4-iminoaminomethylphenyl]oximino-17-cyclopropylmethyl-4,5 α-epoxy-3,14-dihydroxymorphinan]: the Ki stood at 0.73 nM on mu-type opioid receptor (read-out: (Ki) nM, μ receptor (Rat Forebrain), Table 6, [^3 H] DAGO, mean of three experiments); 1.67 nM in assay [1] (setting [5]); 0.64 nM in assay [2] (read-out: (Ki) nM, κ receptor (GP Cerebellum), Table 6, [^3 H] EKC, mean of three experiments).

Take `CC(C)(C)ON=C1CC[C@@]2(O)[C@H]3Cc4ccc(O)c5c4[C@@]2(CCN3CC2CC2)[C@H]1O5` [Example XVI]: the Ki on mu-type opioid receptor (setting [4]) worked out at 1.01 nM; in assay [1] (setting [5]) it was 0.41 nM; in assay [2] it was 7.39 nM.
